The values below come from article PMC3164168 (PLoS ONE, 2011).

Data set [1] has as its system HCT116 (colorectal carcinoma). Kind of data set: MTT cancer cell growth assay, HCT116. The data set is classed as cell-based, human. Particulars: for CC50: read-out: CC50 HCT116. Here is the method: (§1) HeLa (Human Cervical Adenocarcinoma), HCT116 (Human Colorectal Carcinoma) and 1205Lu (Human Melanoma) cells (all from ATCC) were maintained in DMEM containing 10% fetal bovine serum. 12–16 hours prior to drug treatment, 3×10^3 to 5×10^3 cells were seeded on each well of 96-well tissue culture plates. Drugs were diluted in DMEM containing 10% fetal bovine serum and applied to the cells. 72 hours after drug treatment, 20 µl of MTT solution (5 mg/ml in PBS) was added into each well, followed by shaking the plates at 150 rpm for 5 minutes and an incubation of 4 hours (37°C, 5% CO2). Media was removed, plates dried and each well was resuspended in 100 µl MTT formazan/DMSO. The absorbance of each well was recorded at 560 nm on GloMax®-Multi+ Detection System (Promega).

In data set [2] the test system is HeLa (cervical adenocarcinoma). Kind of data set: MTT cancer cell growth assay, HeLa. The note with it: for CC50: read-out: CC50 HeLa. The data set is classed as cell-based, human. Here is the method: as §1
Another data set deals with 1205Lu (melanoma). Kind of data set: MTT cancer cell growth assay, 1205Lu. The data set is classed as cell-based, human. Particulars: for CC50: read-out: CC50 1205Lu. As for the experimental part: as §1
The next data set relates to HFF. Kind of data set: CellTiter-Glo Luminescent Cell Viability assay in HFF. The data set is classed as cell-based. As for the experimental part:
(§2) Human Foreskin Fibroblasts (HFF) passage 12–16 (ATCC, CRL-2088™) were grown in Dulbecco's Modified Eagle Medium (DMEM) containing 10% fetal bovine serum (Gibco, Carlsbad, CA) in a 5% CO2 incubator at 37°C and used for infections with pp28-luciferase Towne CMV or the GCV-resistant strain. One day prior to infection with the pp28-luciferase, 4×10^4 HFF cells were seeded on each well of 24-well tissue culture plates. Infection was carried out at multiplicity of infection of 1 PFU/cell (MOI = 1). Following 90 minute adsorption, media containing virus was removed and replaced by DMEM with 4% fetal bovine serum (Gibco, Carlsbad, CA) containing anti-viral compounds. The concentration of each compound was calculated and adjusted by volume such that it was constant throughout the experiment.
(§3) Infected and treated HFF cells were collected 72 hpi and washed once with PBS. The lysates were assayed for luciferase and cell viability using a Luciferase Assay Kit (Promega, Madison, WI) and CellTiter-Glo Luminescent Cell Viability Assay Kit, respectively, on GloMax®-Multi+ Detection System (Promega) according to manufacturer's instructions.
In general terms: In ATP-based viability assays light output follows the ATP content of the culture.

The test system of data set [3] is pp28-luciferase Towne CMV. Kind of data set: microbe, parasite or virus in culture. The data set is classed as cell-based, human cytomegalovirus. The note with it: for inhibition of late pp28 gene expression (luciferase activity): 72 hpi; for difference in SI versus parent alcohol: 838 vs 606, 832-4 vs 760; for EC50: Human betaherpesvirus 5; for SI (selectivity index, ratio of CC50 to EC50): CC50 in HFF / anti-CMV EC50.
Source text: The pp28-luciferase Towne strain was constructed as previously described. Briefly, the recombinant virus, which expresses luciferase under the control of UL99 (pp28) late promoter was generated by insertion of the reporter gene between the US9 and US10 open reading frames (ORFs) in the Towne genome. […] The ganciclovir (GCV)-resistant strain was obtained from a patient with CMV disease. […] This clinical isolate was provided by the clinical virology laboratory with no identifiers that can link to a specific subject. The Johns Hopkins Office of Human Subject Research Institutional Review Board determined that this research qualified for an exemption.
as §2, §3

Data set [4] deals with GCV-resistant CMV strain (UL97 mutation H520Q). Description: Plaque reduction assay, GCV-resistant CMV strain. Particulars: for inhibition of plaque formation, GCV-resistant CMV strain: 0.1 µM, plaques counted 21 days after infection. The data set is classed as cell-based, human cytomegalovirus. From the text:
The pp28-luciferase Towne strain was constructed as previously described. Briefly, the recombinant virus, which expresses luciferase under the control of UL99 (pp28) late promoter was generated by insertion of the reporter gene between the US9 and US10 open reading frames (ORFs) in the Towne genome. […] We have recently reported that the pp28-luciferase reporter system is sensitive, reproducible and highly correlates with plaque reduction. The ganciclovir (GCV)-resistant strain was obtained from a patient with CMV disease. […] This clinical isolate was provided by the clinical virology laboratory with no identifiers that can link to a specific subject. The Johns Hopkins Office of Human Subject Research Institutional Review Board determined that this research qualified for an exemption.
Human lung fibroblasts (HEL) passage 8–12 (ATCC, CCL-137™) were grown in DMEM containing 10% fetal bovine serum. One day prior to infection, 3×10^5 cells were seeded on each well of 12-well tissue culture plates. GCV-resistant CMV was diluted in DMEM to a desired concentration which gave around 100 plaques per well and added to each well in duplicates. Plates were incubated for 90 minutes with shaking every 10 min; thereafter drugs were added and a methylcellulose overlay applied to each well. After incubation for 21 days, cells were stained with crystal violet and plaques were counted under microscope at 40× magnification.
For orientation: Plaque reduction counts the foci of infection that form in a cell layer.

A short description of data set [5]: CellTiter-Glo Luminescent Cell Viability assay in HFF. The data set is classed as cell-based. Particulars: human. As for the experimental part: as §2, §3
The mark [6] stands for this setting: Homo sapiens, HCT-116, MTT 72 hr after treatment.
Where [7] appears, read: Homo sapiens, HeLa, MTT 72 hr after treatment.
Where [8] appears, read: Homo sapiens, 1205Lu, MTT 72 hr after treatment.
Setting [9] is: HFF, 72 h, measured at 1 µM to 100 µM, read-out: CC50.

As usually defined, the CC50 is the concentration that lowers cell viability or growth by half. As a reminder, the EC50 is the concentration that produces a half-maximal response.

Entries after “also recorded” stand apart in the source; their conditions may differ. Where two headings read alike, the source gives them in different places. Where only a bound is given, the exact number is not on record here.

`C[C@H]1[C@@H](CCC(=O)Nc2ccc(F)cc2)O[C@@H]2OC3(C)CC[C@H]4[C@H](C)CC[C@@H]1[C@@]24OO3` [Artefanilide]: the CC50 was 40 ± 7.9 µM in data set [1] (MTT 72 hr after treatment), over 50 µM in data set [2] (MTT 72 hr after treatment), over 50 µM in the data set with 1205Lu (melanoma) (MTT 72 hr after treatment) and 44.9 ± 3.4 µM in the data set on HFF.

For the compound `CC1CCC2C(C)C(CC(CC3OC4OC5(C)CCC6C(C)CCC(C3C)C46OO5)CS(=O)(=O)c3ccc(COC(=O)N(C)C)cc3)OC3OC4(C)CCC1C32OO4` (centres unmarked) [832-4, Dimer isobu-SO2Ph-4-CH2OC(O)NMe2], in data set [1] (setting [6]), the CC50 was found to be 0.07 ± 0.006 µM. Besides, the half-maximal cytotoxic concentration (CC50) in data set [2] (setting [7]) was 0.27 ± 0.03 µM. Further, the CC50 with 1205Lu (melanoma) (setting [8]) was determined as 0.13 ± 0.007 µM. In data set [3], the “effectiveness in CMV inhibition versus monomer 551” value is recorded as “at least 150 fold”, the “difference in SI versus parent alcohol” value is listed as 30 fold and the response was half-maximal at 0.07 ± 0.004 µM (EC50). In addition, the “inhibition of late pp28 gene expression (luciferase activity)” value (shortened to “inhibition of late pp28 gene expression”) in data set [3] (0.1 µM) was “highly inhibitory”. Further, the “inhibition of plaque formation, GCV-resistant CMV strain” value in data set [4] is recorded as “fully inhibited”. For the same compound, in data set [5], half-maximal cytotoxicity (CC50 at 72 h) was put at 57.5 ± 2.9 µM. Besides, in the data set with HFF, the “cellular toxicities at concentrations of complete CMV inhibition” value is listed as “not observed”.

Take `CC1CCC2C(C)C(CCCS(=O)(=O)c3ccc(COC(=O)N(C)C)cc3)OC3OC4(C)CCC1C32OO4` (centres unmarked) [compound 551, Art-PrSO2Ph-4-CH2OC(O)NMe2]: the “inhibition of late pp28 gene expression” value in data set [3] (1 µM) is “did not”.

For the compound `CC1CCC2C(C)C(CC(CSc3cccc(COC(=O)N(C)C)c3)CC3OC4OC5(C)CCC6C(C)CCC(C3C)C46OO5)OC3OC4(C)CCC1C32OO4` (centres unmarked) [800-3, Dimer isobu-SPh-3-CH2OC(O)NMe2], the results for the “inhibition of late pp28 gene expression” value in data set [3] (0.1 µM) and in data set [3] (0.3 µM) were “not active” and “active”, respectively.

For `Nc1nc(O)c2ncn(COC(CO)CO)c2n1` [GCV, Ganciclovir, reference compound], the CC50 (in data set [1] (setting [6]); in data set [2] (setting [7]); with 1205Lu (melanoma) (setting [8])) was over 50 µM in each case. Further, the “inhibition of late pp28 gene expression” value in data set [3] (0.1 µM) was “no inhibition at all”. The “SI (selectivity index, ratio of CC50 to EC50)” value in data set [3] is reported as 96±14. Further, the EC50 stood at 2.7 ± 0.1 µM in data set [3] and 7.6 µM in data set [4] (Human betaherpesvirus 5, read-out: EC50 of GCV for the GCV-resistant strain). For the same compound, the “plaque formation, GCV-resistant CMV strain” value in data set [4] (GCV at 5 µM, 21 days) is “obvious resistance”. In addition, the CC50 at 72 h in data set [5] (setting [9]) came to 247 ± 33.4 µM.

With `CC1CCC2C(C)C(CC(CC3OC4OC5(C)CCC6C(C)CCC(C3C)C46OO5)CS(=O)(=O)c3cccc(COC(=O)N(C)C)c3)OC3OC4(C)CCC1C32OO4` (centres unmarked) [832-3, Dimer isobu-SO2Ph-3-CH2OC(O)NMe2], the “inhibition of late pp28 gene expression” value is recorded as “not active” in data set [3] (0.1 µM) and “active” in data set [3] (0.3 µM).

`C[C@H]1[C@H](OC(=O)CCC(=O)O)O[C@@H]2O[C@@]3(C)CC[C@H]4[C@H](C)CC[C@@H]1[C@@]24OO3` [artesunate, Artesunate, reference compound]: the CC50 is 11.3 ± 0.6 µM in data set [1] (setting [6]), 7.1 ± 0.4 µM in data set [2] (setting [7]) and 42 ± 2.4 µM with 1205Lu (melanoma) (setting [8]). For the same compound, in data set [3], the “SI (selectivity index, ratio of CC50 to EC50)” value turned out to be 11±0.9. In data set [3], this compound showed an EC50 of 6.6 ± 0.4 µM. Moreover, the CC50 at 72 h in data set [5] (setting [9]) came out at 71.7 ± 4 µM.

In the case of `CC1CCC2C(C)C(CC(CO)CC3OC4OC5(C)CCC6C(C)CCC(C3C)C46OO5)OC3OC4(C)CCC1C32OO4` (centres unmarked) [compound 606, Dimer isobu-OH], the figures for the 50% cytotoxic concentration (CC50) (in data set [1] (setting [6]); in data set [2] (setting [7]); in the data set with 1205Lu (melanoma) (setting [8])) were 0.1 ± 0.001 µM, 1.06 ± 0.2 µM and 4.9 ± 0.04 µM, respectively. Further, in data set [3], the “SI (selectivity index, ratio of CC50 to EC50)” value is on record as 292±21. For the same compound, it took 0.16 ± 0.008 µM to reach a half-maximal effect in data set [3] (EC50). Moreover, the CC50 at 72 h in data set [5] stood at 48.1 ± 2.6 µM.

For the compound `CC1CCC2C(C)C(CC(COP(=O)(Oc3ccccc3)Oc3ccccc3)CC3OC4OC5(C)CCC6C(C)CCC(C3C)C46OO5)OC3OC4(C)CCC1C32OO4` (centres unmarked) [compound 838, Dimer isobu-OP(O)(OPh)2], the “potency in inhibiting growth versus artesunate, HCT116” value in data set [1] was “at least 200 fold”. Moreover, the half-maximal cytotoxic concentration (CC50) in data set [1] (Homo sapiens, HCT-116, 72 h) came out at 0.04 ± 0.005 µM. Moreover, in data set [2], the “potency in inhibiting growth versus artesunate, HeLa” value is on record as 37 fold. Also, the CC50 in data set [2] (Homo sapiens, HeLa, 72 h) is 0.19 ± 0.08 µM. Also, in the data set with 1205Lu (melanoma), the “potency in inhibiting growth versus artesunate, 1205Lu” value is reported as “at least 200 fold”. The CC50 with 1205Lu (melanoma) (Homo sapiens, 1205Lu, 72 h) amounted to 0.06 ± 0.002 µM. In addition, in data set [3], the SI versus artesunate turned out to be 134 fold, the “anti-CMV potency versus artesunate (using EC50 values)” value was determined as 165 fold, the “difference in SI versus parent alcohol” value was found to be 5 fold and the concentration for a half-maximal effect (EC50) is 0.04 ± 0.003 µM. Further, the “inhibition of late pp28 gene expression” value in data set [3] (0.1 µM) is listed as “highly inhibitory”. The “inhibition of plaque formation, GCV-resistant CMV strain” value in data set [4] is listed as “fully inhibited; also recorded: highly active”. Besides, in data set [5] (setting [9]), the 50% cytotoxic concentration (CC50) at 72 h stood at 55.8 ± 2.8 µM. In addition, in the data set with HFF (HFF), the “cellular toxicities at concentrations of complete CMV inhibition” value is “not observed”.

In the case of `CC1CCC2C(C)C(CC(CC3OC4OC5(C)CCC6C(C)CCC(C3C)C46OO5)CS(=O)(=O)c3ccc(CO)cc3)OC3OC4(C)CCC1C32OO4` (centres unmarked) [compound 760, Dimer isobu-SO2Ph-4-CH2OH], the half-maximal cytotoxic concentration (CC50) in data set [1] (setting [6]) came to 0.07 ± 0.005 µM; in data set [2] (setting [7]) it was 0.56 ± 0.18 µM; in the data set on 1205Lu (melanoma) (setting [8]) it was 0.1 ± 0.006 µM. Moreover, the “SI (selectivity index, ratio of CC50 to EC50)” value in data set [3] is on record as 34.5±2. Further, the EC50 in data set [3] stood at 0.14 ± 0.008 µM. Further, the CC50 at 72 h in data set [5] came to 4.9 ± 0.2 µM.

Take `CC1CCC2C(C)C(CC(CSc3ccc(COC(=O)N(C)C)cc3)CC3OC4OC5(C)CCC6C(C)CCC(C3C)C46OO5)OC3OC4(C)CCC1C32OO4` (centres unmarked) [800-4, Dimer isobu-SPh-4-CH2OC(O)NMe2]: the “inhibition of late pp28 gene expression” value is recorded as “not active” in data set [3] (0.1 µM) and “active” in data set [3] (0.3 µM).
